We go through 20 compounds from patent publication US4382030A, “2-Acylaminomethyl-1,4-benzodiazepine derivatives and their salts, pharmaceutical compositions thereof and process for their preparation” (Kali-Chemie Pharma GmbH, priority 1979, dated 1983).

Molecules are shown by their SMILES.

Common to all, as to format: in vivo
For data set [1], the system named is male mice. In words: Determination of the Minimal Toxic Dose (oral, mice). The following applies: mouse, p.o.; observed 3 h, symptoms and deaths over 24 h. Here is the method: 1. Determination of the Minimal Toxic Dose.
Maximum doses of 300 mg/kg of the test compound are administered orally to three male mice having a weight of 20-25 g and toxicity symptoms are carefully observed for a period of three hours. Furthermore, over a period of 24 hours from the administration all symptoms and deaths are registered. Side-symptoms are also observed and registered. Depending on their water solubility, the test compounds are administered either in form of aqueous solutions or in form of suspensions without the use of solvents. In order to maintain a stable suspension of the test compound, one drop of Tween-80 can be added and the mixture can be mechanically homogenized. In the case of compounds where deaths or toxic symptoms have been observed, additional mice are treated with decreasing doses until a dose is reached at which no toxic symptoms occur. The lowest dose which causes toxic symptoms is considered the minimal toxic dose.

Data set [2] deals with mice (tail flick, heat beam pain reaction). In words: Tail flick Test in Mice. The following applies: sc, 0.5 h; mouse, s.c.; 30 minutes after administration; >75% increase of reaction time in 50% of animals. Here is the method: (§1) This analgesic activity has been evaluated in two pharmacological standard methods, the tail flick test in mice and the arthritis pain test in rats.
3. Tail flick Test in Mice.
This test is carried out according to the method described by D'Amour and Smith (1941), yet fed male and female mice having a body weight of 16 to 25 g are used instead of rats. Thirty minutes prior to treatment with the test compound, each mouse is placed separately in a cylindrical container in such a manner that it cannot turn itself or move forward. Its tail is positioned in a narrow groove projecting out of the container. A certain point of the tail of each animal (about 35 mm beyond the root of the tail) is subjected to the heat beam of a lamp of known strength and temperature which is positioned directly under the tail. The number of seconds which pass before the mouse moves its tail out of the light beam is determined twice, once 30 minutes and once 15 minutes prior to subcutaneous administration of the test compound (10 mg/kg). Mice which show a reaction time differing more than 25% are eliminated from the test. The reaction time is again determined 15 minutes and 30 minutes after the treatment and an increase of the reaction period of more than 75% of the average values prior to treatment in the same animal is considered as showing an analgesic effect. The ED50 (95% reliability) of each test compound 30 minutes after administration is evaluated according to the method of Litchfield and Wilcoxon (1949). The dose which increases the reaction time as compared to the reaction time prior to treatment for more than 75% in 50% of the animals is considered as ED50.

Data set [3] has as its system rats (secondary arthritis pain, mycobacterium smegmae). In words: Arthritis Pain Test in Rats. The settings on record: po, rat, p.o., 3 hours after administration, protection in 50% of treated animals. The protocol:
as §1
2. Arthritis Pain Test in Rats.
Male rats having a weight of from 160 to 180 g are anesthetized by small i.p. injection of 20 mg/kg of sodium pentobarbital and 0.1 ml of a suspension of mycobacterium smegmae (SI 043) in liquid paraffin (0.6 mg mycobacterium/0.1 ml of oil) are injected intracutaneously into the left rear paw. Fourteen days later when a marked secondary arthritis has developed in particular in the right rear paw, the effect of the test compound is evaluated. A control-reading is taken 30 minutes prior to administration of the test compound by bending the foot joint of the right rear paw three times and counting the number of squeakings. […] Three hours after oral administration of the test compound the bending of the joint is repeated. Animals which squeak only once or not at all are considered to be protected against pain. Between about 9 and 20 rats are used per dose and the ED50 (95% reliability) is determined according to the method of Litchfield and Wilcoxon (1949). The dose which provides protection in 50% of the treated animals is taken as ED50.

In the case of `CN1c2ccccc2C(c2ccccc2)=NCC1CNC(=O)c1cccs1` (stereo not shown) [Compound 1, 1-methyl-2-[(thiophene-2-carbonyl)-aminomethyl]-5-phenyl-1H-2,3-dihydro-1,4-benzodiazepine], in data set [1], the “MDL (minimal toxic dose)” value is on record as above 300 mg/kg. Moreover, the figures for the ED50 in data set [2] and in data set [3] were 2.8 mg/kg and 13 mg/kg, respectively.

As for `CN1c2ccccc2C(c2ccccc2)=NCC1CNC(=O)c1ccco1` (stereo not shown) [Compound 2, 1-methyl-2-[(furane-2-carbonyl)-aminomethyl]-5-phenyl-1H-2,3-dihydro-1,4-benzodiazepine], the “MDL (minimal toxic dose)” value in data set [1] is given as above 300 mg/kg. Also, the ED50 in data set [2] was 2.8 mg/kg; in data set [3], 32 mg/kg.

`COc1ccc2c(c1)N(C)C(CNC(=O)c1cccs1)CN=C2c1ccccc1` (stereo not shown) [Compound 3, 8-methoxy-1-methyl-2-[(thiophene-2-carbonyl)-aminomethyl]-5-phenyl-1H-2,3-dihydro-1,4-benzodiazepine]: in data set [1], the “MDL (minimal toxic dose)” value is on record as above 200 mg/kg. In addition, the ED50 in data set [2] turned out to be 5.3 mg/kg; in data set [3], 20 mg/kg.

For the compound `COc1ccc2c(c1)N(C)C(CNC(=O)c1ccco1)CN=C2c1ccccc1` (stereo not shown) [Compound 4, 8-methoxy-1-methyl-2-[(furane-2-carbonyl)-aminomethyl]-5-phenyl-1H-2,3-dihydro-1,4-benzodiazepine], in data set [1], the “MDL (minimal toxic dose)” value is on record as above 200 mg/kg. The ED50 in data set [2] was found to be 7 mg/kg; in data set [3] it was 21 mg/kg.

On to `COc1ccc2c(c1)N(C)C(CNC(=O)c1ccsc1)CN=C2c1ccccc1` (stereo not shown) [Compound 5, 8-methoxy-1-methyl-2-[(thiophene-3-carbonyl)-aminomethyl]-5-phenyl-1H-2,3-dihydro-1,4-benzodiazepine], for which, in data set [1], the “MDL (minimal toxic dose)” value is listed as above 200 mg/kg. Also, the results for the ED50 in data set [2] and in data set [3] were 2.4 mg/kg and 15 mg/kg, respectively.

`COc1ccc2c(c1)N(C)C(CNC(=O)c1ccoc1)CN=C2c1ccccc1` (stereo not shown) [Compound 6, 8-methoxy-1-methyl-2-[(furane-3-carbonyl)-aminomethyl]-5-phenyl-1H-2,3-dihydro-1,4-benzodiazepine]: in data set [1], the “MDL (minimal toxic dose)” value is on record as above 50 mg/kg. Further, the median effective dose (ED50) in data set [2] stood at 2.8 mg/kg; in data set [3], 9 mg/kg.

On to `CN1c2ccccc2C(c2ccccc2)=NCC1CNC(=O)c1ccsc1` (stereo not shown) [Compound 7, 1-methyl-2-[(thiophene-3-carbonyl)-aminomethyl]-5-phenyl-1H-2,3-dihydro-1,4-benzodiazepine], for which, in data set [1], the “MDL (minimal toxic dose)” value is listed as above 200 mg/kg. For the same compound, the ED50 in data set [2] came to 0.22 mg/kg; in data set [3], 19 mg/kg.

As for `Cc1cc2c(cc1C)N(C)C(CNC(=O)c1ccoc1)CN=C2c1ccccc1` (stereo not shown) [Compound 8, 1,7,8-trimethyl-2-[(furane-3-carbonyl)-aminomethyl]-5-phenyl-1H-2,3-dihydro-1,4-benzodiazepine], the “MDL (minimal toxic dose)” value in data set [1] is recorded as above 200 mg/kg. For the same compound, the ED50 came out at 8 mg/kg in data set [2] and 14 mg/kg in data set [3].

Consider `COc1ccc2c(c1)N(C)C(CNC(=O)c1ccc(C)s1)CN=C2c1ccccc1` (stereo not shown) [Compound 9, 8-methoxy-1-methyl-2-[(5-methylthiophene-2-carbonyl)-aminomethyl]-5-phenyl-1H-2,3-dihydro-1,4-benzodiazepine], for which the “MDL (minimal toxic dose)” value in data set [1] was above 200 mg/kg. The figures for the ED50 in data set [2] and in data set [3] were 5.6 mg/kg and 14 mg/kg, respectively.

In the case of `Cc1ccc2c(c1)C(c1ccccc1)=NCC(CNC(=O)c1ccsc1)N2C` (stereo not shown) [Compound 10, 1,7-dimethyl-2-[(thiophene-3-carbonyl)-aminomethyl]-5-phenyl-1H-2,3-dihydro-1,4-benzodiazepine], the “MDL (minimal toxic dose)” value in data set [1] was above 300 mg/kg. The results for the ED50 in data set [2] and in data set [3] were 3.2 mg/kg and 32 mg/kg, respectively.

In the case of `Cc1ccc2c(c1)C(c1ccccc1)=NCC(CNC(=O)c1ccoc1)N2C` (stereo not shown) [Compound 11, 1,7-dimethyl-2-[(furane-3-carbonyl)-aminomethyl]-5-phenyl-1H-2,3-dihydro-1,4-benzodiazepine], the “MDL (minimal toxic dose)” value in data set [1] was above 300 mg/kg. For the same compound, the ED50 is 1.2 mg/kg in data set [2] and 30 mg/kg in data set [3].

On to `Cc1ccc(C(=O)NCC2CN=C(c3ccccc3)c3ccccc3N2C)s1` (stereo not shown) [Compound 12, 1-methyl-2-[(5-methylthiophene-2-carbonyl)-aminomethyl]-5-phenyl-1H-2,3-dihydro-1,4-benzodiazepine], for which the “MDL (minimal toxic dose)” value in data set [1] is given as above 300 mg/kg. Also, the ED50 was determined as 2.8 mg/kg in data set [2] and 10 mg/kg in data set [3].

Consider `CCOc1ccc2c(c1)N(C)C(CNC(=O)c1ccoc1)CN=C2c1ccccc1` (stereo not shown) [Compound 13, 8-ethoxy-1-methyl-2-[(furane-3-carbonyl)-aminomethyl]-5-phenyl-1H-2,3-dihydro-1,4-benzodiazepine], for which the “MDL (minimal toxic dose)” value in data set [1] was above 200 mg/kg. Besides, the ED50 turned out to be 6 mg/kg in data set [2] and 15 mg/kg in data set [3].

For `COc1cccc(C2=NCC(CNC(=O)c3ccco3)N(C)c3ccccc32)c1` (stereo not shown) [Compound 14, 1-methyl-2-[(furane-2-carbonyl)-aminomethyl]-5-(3-methoxyphenyl)-1H-2,3-dihydro-1,4-benzodiazepine], the “MDL (minimal toxic dose)” value in data set [1] is recorded as above 300 mg/kg. Further, the ED50 in data set [2] was 1.6 mg/kg; in data set [3], 32 mg/kg.

As to `COc1ccc2c(c1)C(c1ccccc1)=NCC(CNC(=O)c1ccoc1)N2C` (stereo not shown) [Compound 15, 7-methoxy-1-methyl-2-[(furane-3-carbonyl)-aminomethyl]-5-phenyl-1H-2,3-dihydro-1,4-benzodiazepine], in data set [1], the “MDL (minimal toxic dose)” value is reported as above 300 mg/kg. Also, the ED50 worked out at 8.5 mg/kg in data set [2] and 32 mg/kg in data set [3].

Turning to `COc1cccc(C2=NCC(CNC(=O)c3ccsc3)N(C)c3ccccc32)c1` (stereo not shown) [Compound 16, 1-methyl-2-[(thiophene-3-carbonyl)-aminomethyl]-5-(3-methoxyphenyl)-1H-2,3-dihydro-1,4-benzodiazepine], the “MDL (minimal toxic dose)” value in data set [1] is listed as above 300 mg/kg. Moreover, the ED50 in data set [2] is 0.5 mg/kg; in data set [3], 32 mg/kg.

Regarding `CCN1c2ccccc2C(c2ccccc2)=NCC1CNC(=O)c1ccoc1` (stereo not shown) [Compound 17, 1-ethyl-2-[(furane-3-carbonyl)-aminomethyl]-5-phenyl-1H-2,3-dihydro-1,4-benzodiazepine], the “MDL (minimal toxic dose)” value in data set [1] was above 200 mg/kg. Further, the ED50 in data set [2] amounted to 2.6 mg/kg; in data set [3], 22 mg/kg.

`CN1c2ccccc2C(c2ccccc2F)=NCC1CNC(=O)c1ccco1` (stereo not shown) [Compound 18, 1-methyl-2-[(furane-2-carbonyl)-aminomethyl]-5-(2-fluorophenyl)-1H-2,3-dihydro-1,4-benzodiazepine]: the “MDL (minimal toxic dose)” value in data set [1] is above 300 mg/kg. Besides, the ED50 in data set [2] was found to be 4.1 mg/kg; in data set [3], 18 mg/kg.

Regarding `COc1ccc2c(c1)N(C)C(CNC(=O)c1ccc(Br)s1)CN=C2c1cccc(F)c1` (stereo not shown) [Compound 48, 8-methoxy-1-methyl-2-[(5-bromothiophene-2-carbonyl)-aminomethyl]-5-(3-fluorophenyl)-1H-2,3-dihydro-1,4-benzodiazepine], the ED50 in data set [2] is above 5.6 mg/kg; in data set [3], below 18 mg/kg.

On to `COc1ccc2c(c1)N(C)C(CNC(=O)c1ccc(Br)s1)CN=C2c1ccc(F)cc1` (stereo not shown) [Compound 49, 8-methoxy-1-methyl-2-[(5-bromothiophene-2-carbonyl)-aminomethyl]-5-(4-fluorophenyl)-1H-2,3-dihydro-1,4-benzodiazepine], for which the ED50 in data set [2] is above 5.6 mg/kg; in data set [3] it was below 18 mg/kg.
